The values that follow come from ChEMBL document CHEMBL1140654 (Bioorg Med Chem Lett, 2007).

The test system of one experiment is U-937. Nature of the experiment: Inhibition of TNFalpha production in U937 cells. To be noted: Homo sapiens.
Another experiment relates to Rattus norvegicus. The experiment is described as follows: Inhibition of TNFalpha production in rat at 40 mg/kg, ip administered 1 hr prior to LPS challenge. On the set-up: scale not given: the % may be the effect or the level left. Particulars: route intraperitoneal. The class given is functional.
Experiment [1] concerns the target MAP kinase-activated protein kinase 2 (Homo sapiens, UniProt P49137).
Experiment [2] has as its target Mitogen-activated protein kinase 14 (Homo sapiens, UniProt Q16539). The experiment is described as follows: Inhibition of p38alpha.
For experiment [3], the target named is MAP kinase-interacting serine/threonine-protein kinase 1 (Homo sapiens, UniProt Q9BUB5). The experiment is described as follows: Inhibition of MNK1.
The target of experiment [4] is T1, Inhibitor of nuclear factor kappa-B kinase subunit beta (Homo sapiens, UniProt O14920).
T1 sequence (O14920 whole entry): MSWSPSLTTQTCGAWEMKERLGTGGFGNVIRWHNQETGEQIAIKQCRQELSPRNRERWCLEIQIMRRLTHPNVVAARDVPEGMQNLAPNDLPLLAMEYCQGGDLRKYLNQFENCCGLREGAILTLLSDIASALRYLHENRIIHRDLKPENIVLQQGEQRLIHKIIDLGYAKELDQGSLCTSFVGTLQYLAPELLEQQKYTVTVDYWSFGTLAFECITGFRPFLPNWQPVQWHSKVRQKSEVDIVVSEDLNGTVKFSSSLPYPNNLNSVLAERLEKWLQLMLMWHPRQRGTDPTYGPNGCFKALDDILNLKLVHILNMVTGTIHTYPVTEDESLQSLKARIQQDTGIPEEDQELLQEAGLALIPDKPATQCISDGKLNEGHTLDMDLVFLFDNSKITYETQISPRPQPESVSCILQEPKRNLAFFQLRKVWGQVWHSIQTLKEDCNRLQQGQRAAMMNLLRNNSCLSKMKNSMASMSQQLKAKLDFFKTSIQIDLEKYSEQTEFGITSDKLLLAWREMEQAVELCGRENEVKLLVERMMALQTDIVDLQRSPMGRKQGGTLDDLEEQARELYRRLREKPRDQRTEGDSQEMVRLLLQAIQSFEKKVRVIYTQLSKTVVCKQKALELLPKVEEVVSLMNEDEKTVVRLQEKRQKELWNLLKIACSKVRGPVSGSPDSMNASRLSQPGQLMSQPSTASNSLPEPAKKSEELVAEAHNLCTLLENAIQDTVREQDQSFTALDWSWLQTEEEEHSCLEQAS
The experiment is described as follows: Inhibition of IKK2.

The target of experiment [5] is Ribosomal protein S6 kinase alpha-5 (Homo sapiens, UniProt O75582). The experiment is described as follows: Inhibition of MSK1.
Experiment [6] concerns the target T2, MAP kinase-activated protein kinase 5 (Homo sapiens, UniProt Q8IW41).
T2 sequence (Q8IW41 whole entry): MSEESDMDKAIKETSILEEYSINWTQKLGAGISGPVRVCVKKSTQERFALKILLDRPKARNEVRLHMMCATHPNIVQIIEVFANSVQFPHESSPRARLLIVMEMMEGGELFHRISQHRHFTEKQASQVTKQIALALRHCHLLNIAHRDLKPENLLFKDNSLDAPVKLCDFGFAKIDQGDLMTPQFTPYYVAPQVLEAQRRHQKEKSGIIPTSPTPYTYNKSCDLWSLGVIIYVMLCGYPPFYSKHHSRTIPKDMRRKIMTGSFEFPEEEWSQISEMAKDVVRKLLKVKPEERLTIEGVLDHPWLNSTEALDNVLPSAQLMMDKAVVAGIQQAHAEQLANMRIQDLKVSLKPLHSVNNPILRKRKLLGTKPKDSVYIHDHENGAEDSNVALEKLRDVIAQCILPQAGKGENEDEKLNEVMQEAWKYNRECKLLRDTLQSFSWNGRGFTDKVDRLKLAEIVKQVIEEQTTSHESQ
The experiment is described as follows: Inhibition of PRAK.

Experiment [7] addresses MAP kinase-activated protein kinase 3 (Homo sapiens, UniProt Q16644). The experiment is described as follows: Inhibition of MK3. In kind it is single protein.
For experiment [8], the target named is Mitogen-activated protein kinase 9 (Homo sapiens, UniProt P45984). Nature of the experiment: Inhibition of JNK2.
For experiment [9], the target named is Mitogen-activated protein kinase 1 (Homo sapiens, UniProt P28482). The experiment is described as follows: Inhibition of ERK2.

Molecules are shown by their SMILES.

MAP kinase-activated protein kinase 3, sequence (Q16644 whole entry): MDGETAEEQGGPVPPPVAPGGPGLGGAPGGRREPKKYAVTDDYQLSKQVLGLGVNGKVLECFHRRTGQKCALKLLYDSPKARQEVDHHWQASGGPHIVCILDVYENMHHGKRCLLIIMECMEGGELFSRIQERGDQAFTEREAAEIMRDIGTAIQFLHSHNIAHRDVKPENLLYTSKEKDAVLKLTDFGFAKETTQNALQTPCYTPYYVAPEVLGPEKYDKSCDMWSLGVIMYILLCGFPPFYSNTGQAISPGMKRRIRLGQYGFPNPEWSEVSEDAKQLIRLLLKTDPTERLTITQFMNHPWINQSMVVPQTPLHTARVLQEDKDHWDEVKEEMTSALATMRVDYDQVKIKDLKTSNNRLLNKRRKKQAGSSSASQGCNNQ
Mitogen-activated protein kinase 14, sequence (Q16539 whole entry): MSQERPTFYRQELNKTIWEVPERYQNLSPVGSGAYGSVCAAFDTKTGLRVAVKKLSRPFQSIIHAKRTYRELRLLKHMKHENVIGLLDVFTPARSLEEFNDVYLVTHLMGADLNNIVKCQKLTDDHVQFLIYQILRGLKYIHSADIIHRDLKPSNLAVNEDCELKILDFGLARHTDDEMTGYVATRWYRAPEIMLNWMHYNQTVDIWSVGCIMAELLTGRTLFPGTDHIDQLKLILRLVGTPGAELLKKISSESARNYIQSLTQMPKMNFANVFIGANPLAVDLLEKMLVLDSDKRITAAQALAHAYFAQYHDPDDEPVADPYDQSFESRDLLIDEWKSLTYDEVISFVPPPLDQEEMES
Ribosomal protein S6 kinase alpha-5, sequence (O75582 whole entry): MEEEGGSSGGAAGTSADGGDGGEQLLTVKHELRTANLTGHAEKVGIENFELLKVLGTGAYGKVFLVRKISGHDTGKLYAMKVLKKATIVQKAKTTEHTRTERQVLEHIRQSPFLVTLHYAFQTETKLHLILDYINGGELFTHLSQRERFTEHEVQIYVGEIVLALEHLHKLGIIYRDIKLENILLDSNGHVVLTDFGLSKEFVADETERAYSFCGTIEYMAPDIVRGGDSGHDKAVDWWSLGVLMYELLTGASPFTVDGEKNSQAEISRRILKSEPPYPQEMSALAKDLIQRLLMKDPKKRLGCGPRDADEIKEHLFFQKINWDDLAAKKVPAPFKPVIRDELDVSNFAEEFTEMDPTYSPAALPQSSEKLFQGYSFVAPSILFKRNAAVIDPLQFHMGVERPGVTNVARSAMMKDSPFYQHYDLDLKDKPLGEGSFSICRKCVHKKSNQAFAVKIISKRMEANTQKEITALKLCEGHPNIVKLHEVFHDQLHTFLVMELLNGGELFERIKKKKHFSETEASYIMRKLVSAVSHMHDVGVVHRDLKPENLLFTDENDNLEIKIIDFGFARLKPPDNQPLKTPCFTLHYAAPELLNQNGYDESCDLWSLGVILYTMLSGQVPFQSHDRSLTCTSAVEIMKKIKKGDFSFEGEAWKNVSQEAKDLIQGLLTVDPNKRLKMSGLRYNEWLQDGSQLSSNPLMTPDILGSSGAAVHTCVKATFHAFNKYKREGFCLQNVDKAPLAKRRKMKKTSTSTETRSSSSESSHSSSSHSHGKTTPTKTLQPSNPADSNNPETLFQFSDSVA
Mitogen-activated protein kinase 9, sequence (P45984 whole entry): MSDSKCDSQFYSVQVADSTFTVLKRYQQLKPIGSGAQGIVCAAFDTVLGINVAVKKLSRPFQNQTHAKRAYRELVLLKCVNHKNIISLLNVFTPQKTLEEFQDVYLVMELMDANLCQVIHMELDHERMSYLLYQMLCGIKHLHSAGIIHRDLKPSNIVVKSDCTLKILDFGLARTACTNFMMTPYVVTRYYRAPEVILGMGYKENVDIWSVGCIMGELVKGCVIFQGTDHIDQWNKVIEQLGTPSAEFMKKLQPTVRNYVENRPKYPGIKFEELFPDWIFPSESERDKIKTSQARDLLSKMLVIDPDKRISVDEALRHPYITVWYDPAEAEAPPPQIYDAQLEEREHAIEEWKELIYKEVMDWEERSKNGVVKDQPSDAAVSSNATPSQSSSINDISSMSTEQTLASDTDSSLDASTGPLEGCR
MAP kinase-activated protein kinase 2, sequence (P49137 whole entry): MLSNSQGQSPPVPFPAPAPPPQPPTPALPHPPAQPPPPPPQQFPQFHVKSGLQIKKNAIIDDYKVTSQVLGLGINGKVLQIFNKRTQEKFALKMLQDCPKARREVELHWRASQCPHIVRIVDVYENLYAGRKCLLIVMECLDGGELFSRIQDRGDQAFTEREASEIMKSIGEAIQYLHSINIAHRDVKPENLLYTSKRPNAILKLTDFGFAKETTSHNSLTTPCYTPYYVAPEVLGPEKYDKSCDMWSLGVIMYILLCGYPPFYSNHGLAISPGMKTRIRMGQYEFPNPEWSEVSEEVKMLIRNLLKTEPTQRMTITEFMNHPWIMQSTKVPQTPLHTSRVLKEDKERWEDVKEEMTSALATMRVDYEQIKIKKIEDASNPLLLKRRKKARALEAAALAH
Mitogen-activated protein kinase 1, sequence (P28482 whole entry): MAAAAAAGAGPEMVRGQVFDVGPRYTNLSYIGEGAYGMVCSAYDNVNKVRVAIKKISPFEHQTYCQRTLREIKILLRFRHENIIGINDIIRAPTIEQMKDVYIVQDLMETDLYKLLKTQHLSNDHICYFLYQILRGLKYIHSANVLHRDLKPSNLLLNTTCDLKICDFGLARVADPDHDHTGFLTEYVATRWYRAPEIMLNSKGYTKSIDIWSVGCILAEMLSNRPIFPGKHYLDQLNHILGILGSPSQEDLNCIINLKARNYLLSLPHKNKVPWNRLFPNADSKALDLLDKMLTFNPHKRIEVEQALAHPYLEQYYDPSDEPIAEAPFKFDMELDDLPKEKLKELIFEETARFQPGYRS
MAP kinase-interacting serine/threonine-protein kinase 1, sequence (Q9BUB5 whole entry): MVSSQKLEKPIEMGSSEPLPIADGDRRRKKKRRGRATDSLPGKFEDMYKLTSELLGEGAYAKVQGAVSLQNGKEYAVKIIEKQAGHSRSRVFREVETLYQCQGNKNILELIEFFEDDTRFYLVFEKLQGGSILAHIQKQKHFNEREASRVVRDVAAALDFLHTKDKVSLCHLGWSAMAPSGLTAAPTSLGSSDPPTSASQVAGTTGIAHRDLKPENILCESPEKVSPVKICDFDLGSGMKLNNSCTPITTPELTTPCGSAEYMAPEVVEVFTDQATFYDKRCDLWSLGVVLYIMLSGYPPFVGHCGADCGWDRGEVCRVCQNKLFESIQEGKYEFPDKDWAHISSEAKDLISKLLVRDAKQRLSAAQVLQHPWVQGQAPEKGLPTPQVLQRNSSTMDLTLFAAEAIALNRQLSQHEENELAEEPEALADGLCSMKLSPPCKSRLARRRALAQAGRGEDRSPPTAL

As a reminder, the IC50 is the concentration needed to halve the response being measured. As for `COc1ccc2[nH]c3c(c2c1)C1CCN(C1)C3C(=O)OCc1ccccc1` (centres undefined), the IC50 in the experiment on U-937 was found to be 1.7 µM.
`CCCOC(=O)C1c2[nH]c3ccc(OC)cc3c2C2CCN1C2` (centres undefined): the Activity in the experiment on Rattus norvegicus was found to be 84%. Besides, the half-maximal inhibitory concentration (IC50) with U-937 came to 0.83 µM.
For the molecule `C=CCOC(=O)C1c2[nH]c3ccc(OC)cc3c2C2CCN1C2` (centres undefined), it took 14.4 µM to reach half-maximal inhibition with U-937 (IC50).
As for `COc1ccc2[nH]c3c(c2c1)CCNC3c1nnn[nH]1` (centres undefined), 130 µM corresponded to half-maximal inhibition in experiment [1] (IC50).
As to `COc1ccc2[nH]c3c(c2c1)C1CCN(C1)C3C(=O)O` (centres undefined), the half-maximal inhibitory concentration (IC50) in experiment [2] is > 100 µM; in experiment [3], > 200 µM; in experiment [4], > 200 µM; in [5] it was > 200 µM; in experiment [6], 24 µM; in [7], 90 µM. The results for the IC50 (in the experiment with U-937; in experiment [8]) were 80.8 µM and > 200 µM, respectively.
In the case of `COc1ccc2[nH]c3c(c2c1)C1CCCN(C1)C3C(=O)O` (centres undefined), half-maximal inhibition in [7] (IC50) was put at 160 µM.
Regarding `CCOC(=O)C1c2[nH]c3ccc(OC)cc3c2C2CCN1C2` (centres undefined), in the experiment with U-937, inhibition was half-maximal at 5.6 µM (IC50).
On to `COc1ccc2[nH]c3c(c2c1)CCNC3C(=O)O` (centres undefined), for which the IC50 is > 100 µM in [2]; > 100 µM in experiment [9]; > 200 µM in experiment [4]; > 200 µM in [5]; 19 µM in experiment [6]; > 200 µM in experiment [7]. In addition, the IC50 in experiment [8] was > 200 µM.
For the molecule `COc1ccc2[nH]c3c(c2c1)C1CCN(C1)C3C(=O)OC(C)c1ccccc1` (centres undefined), in the experiment on U-937, the IC50 is 10.3 µM.
Turning to `CC(=O)Oc1ccc2[nH]c3c(c2c1)CCNC3C(=O)O` (centres undefined), in experiment [1], the IC50 was 170 µM.
